Here are results for one molecule from publication PMC5218480 (PLoS ONE, 2017).

The test system of this experiment is MV-4-11 cells. Description: Gene expression microarray analysis (Affymetrix PrimeView) and GSEA. Format: cell-based, human. Further details: RFU PODN (11730768_x_at) / Fold change /veh PODN (11730768_x_at) / RFU LINC00158 (11744669_a_at) / Fold change /veh LINC00158 (11744669_a_at) / RFU DUSP10 (11751237_a_at) / Fold change /veh DUSP10 (11751237_a_at) / RFU ID3 (11757404_x_at) / Fold change /veh ID3 (11757404_x_at) / RFU PLEKHG5 (11737974_s_at) / Fold change /veh PLEKHG5 (11737974_s_at) / RFU LRRC4B (11730491_at) / Fold change /veh LRRC4B (11730491_at) / RFU GIMAP4 (11747438_a_at) / Fold change /veh GIMAP4 (11747438_a_at) / RFU KRT8 (11758183_x_at) / Fold change /veh KRT8 (11758183_x_at) / RFU CNN1 (11734310_a_at) / Fold change /veh CNN1 (11734310_a_at) / RFU VPS37D (11726825_at) / Fold change /veh VPS37D (11726825_at) / RFU C10orf10 (11716522_x_at) / Fold change /veh C10orf10 (11716522_x_at) / RFU KIR2DL2 /// KIR2DL4 /// KIR2DL5A /// KIR2DL5B /// KIR2DS1 /// KIR2DS2 /// KIR2DS3 /// KIR2DS4 /// KIR3DL3 /// KIR3DL3 /// KIR3DS1 (11738374_at) / Fold change /veh KIR2DL2 /// KIR2DL4 /// KIR2DL5A /// KIR2DL5B /// KIR2DS1 /// KIR2DS2 /// KIR2DS3 /// KIR2DS4 /// KIR3DL3 /// KIR3DL3 /// KIR3DS1 (11738374_at) / RFU C1QL1 (11718748_at) / Fold change /veh C1QL1 (11718748_at) / RFU TMPRSS4 (11747572_a_at) / Fold change /veh TMPRSS4 (11747572_a_at) / RFU HAMP (11756126_x_at) / Fold change /veh HAMP (11756126_x_at) / RFU RNFT2 (11725882_a_at) / Fold change /veh RNFT2 (11725882_a_at) / RFU NR4A2 (11747474_a_at) / Fold change /veh NR4A2 (11747474_a_at) / RFU ABCC12 (11746883_a_at) / Fold change /veh ABCC12 (11746883_a_at) / RFU TMEM136 (11760407_x_at) / Fold change /veh TMEM136 (11760407_x_at) / RFU CLDN22 /// WWC2 (11732394_at) / Fold change /veh CLDN22 /// WWC2 (11732394_at) / RFU HLA-DPB1 (11760878_x_at) / Fold change /veh HLA-DPB1 (11760878_x_at) / RFU SPINT1 (11716480_a_at) / Fold change /veh SPINT1 (11716480_a_at) / RFU GAP43 (11754022_s_at) / Fold change /veh GAP43 (11754022_s_at) / RFU A4GNT (11735810_at) / Fold change /veh A4GNT (11735810_at) / RFU PRB3 (11715151_x_at) / Fold change /veh PRB3 (11715151_x_at) / RFU TUBB4B (11761932_at) / Fold change /veh TUBB4B (11761932_at) / RFU CAPN14 (11732068_a_at) / Fold change /veh CAPN14 (11732068_a_at) / RFU TMCC2 (11721928_a_at) / Fold change /veh TMCC2 (11721928_a_at) / RFU IRGQ (11745062_a_at) / Fold change /veh IRGQ (11745062_a_at) / RFU FAM174B (11720279_a_at) / Fold change /veh FAM174B (11720279_a_at) / RFU TMPRSS4 (11748680_a_at) / Fold change /veh TMPRSS4 (11748680_a_at) / RFU FAM212B (11763350_a_at) / Fold change /veh FAM212B (11763350_a_at) / RFU PLEKHG5 (11743358_a_at) / Fold change /veh PLEKHG5 (11743358_a_at) / RFU ZSCAN30 (11745921_a_at) / Fold change /veh ZSCAN30 (11745921_a_at) / RFU CMKLR1 (11741424_a_at) / Fold change /veh CMKLR1 (11741424_a_at) / RFU LOC101060620 /// MAPK8IP1 (11723275_at) / Fold change /veh LOC101060620 /// MAPK8IP1 (11723275_at) / RFU SPTSSB (11747773_x_at) / Fold change /veh SPTSSB (11747773_x_at) / RFU PRSS12 (11739890_at) / Fold change /veh PRSS12 (11739890_at) / RFU BIN1 (11741810_x_at) / Fold change /veh BIN1 (11741810_x_at) / RFU WNT11 (11732464_a_at) / Fold change /veh WNT11 (11732464_a_at) / RFU C10orf10 (11716521_a_at) / Fold change /veh C10orf10 (11716521_a_at) / RFU C5orf56 (11738089_at) / Fold change /veh C5orf56 (11738089_at) / RFU CYB561 (11721691_x_at) / Fold change /veh CYB561 (11721691_x_at) / RFU ANKRD19P (11752326_a_at) / Fold change /veh ANKRD19P (11752326_a_at) / RFU OR2T12 /// OR2T33 /// OR2T8 (11738714_s_at) / Fold change /veh OR2T12 /// OR2T33 /// OR2T8 (11738714_s_at) / RFU VCAN (11748164_a_at) / Fold change /veh VCAN (11748164_a_at) / RFU JSRP1 (11732532_at) / Fold change /veh JSRP1 (11732532_at) / RFU KRTAP10-11 (11738290_x_at) / Fold change /veh KRTAP10-11 (11738290_x_at) / RFU MYO3A (11730013_a_at) / Fold change /veh MYO3A (11730013_a_at) / RFU EBF3 (11725865_a_at) / Fold change /veh EBF3 (11725865_a_at) / RFU CAMK2N1 (11719241_x_at) / Fold change /veh CAMK2N1 (11719241_x_at) / RFU C5orf56 (11738088_a_at) / Fold change /veh C5orf56 (11738088_a_at) / RFU OLFML3 (11715873_a_at) / Fold change /veh OLFML3 (11715873_a_at) / RFU LOC100653217 /// NTM (11731650_a_at) / Fold change /veh LOC100653217 /// NTM (11731650_a_at) / RFU MAPK11 (11762145_a_at) / Fold change /veh MAPK11 (11762145_a_at) / RFU FIZ1 (11724087_x_at) / Fold change /veh FIZ1 (11724087_x_at) / RFU OASL (11726364_x_at) / Fold change /veh OASL (11726364_x_at) / RFU SOX15 (11748057_x_at) / Fold change /veh SOX15 (11748057_x_at) / RFU CD79A (11719716_a_at) / Fold change /veh CD79A (11719716_a_at) / RFU HIST1H1D (11736915_at) / Fold change /veh HIST1H1D (11736915_at) / RFU CASKIN2 (11723855_a_at) / Fold change /veh CASKIN2 (11723855_a_at) / RFU LOC730098 (11760151_x_at) / Fold change /veh LOC730098 (11760151_x_at) / RFU OR4N2 (11742367_at) / Fold change /veh OR4N2 (11742367_at) / RFU PRRT2 (11749266_a_at) / Fold change /veh PRRT2 (11749266_a_at) / RFU SNX32 (11753110_a_at) / Fold change /veh SNX32 (11753110_a_at) / RFU CDHR5 (11726645_a_at) / Fold change /veh CDHR5 (11726645_a_at) / RFU RCAN1 (11760418_a_at) / Fold change /veh RCAN1 (11760418_a_at) / RFU FAM167A (11723789_a_at) / Fold change /veh FAM167A (11723789_a_at) / RFU FAM26E (11764081_at) / Fold change /veh FAM26E (11764081_at) / RFU ISYNA1 (11749810_s_at) / Fold change /veh ISYNA1 (11749810_s_at) / RFU ACY1 (11761880_at) / Fold change /veh ACY1 (11761880_at) / RFU 11764098_at / Fold change /veh 11764098_at / RFU SAMD14 (11745864_x_at) / Fold change /veh SAMD14 (11745864_x_at) / RFU NPB (11741838_a_at) / Fold change /veh NPB (11741838_a_at) / RFU TMPRSS6 (11731388_a_at) / Fold change /veh TMPRSS6 (11731388_a_at) / RFU KRTAP10-2 (11738614_at) / Fold change /veh KRTAP10-2 (11738614_at) / RFU ARHGAP8 /// PRR5-ARHGAP8 (11727945_x_at) / Fold change /veh ARHGAP8 /// PRR5-ARHGAP8 (11727945_x_at) / RFU KRTAP5-7 /// NADSYN1 (11734609_at) / Fold change /veh KRTAP5-7 /// NADSYN1 (11734609_at) / RFU RASL12 (11751679_a_at) / Fold change /veh RASL12 (11751679_a_at) / RFU CDKN2B (11736163_a_at) / Fold change /veh CDKN2B (11736163_a_at) / RFU PRF1 (11729649_at) / Fold change /veh PRF1 (11729649_at) / RFU, ZNF638 /// ZNF638-IT1 / Fold change vs veh, ZNF638 /// ZNF638-IT1 / RFU, PANK3 / Fold change vs veh, PANK3 / RFU, SH3YL1 / Fold change vs veh, SH3YL1 / RFU, ZEB2 / Fold change vs veh, ZEB2 / RFU, NRIP1 / Fold change vs veh, NRIP1 / RFU, PTTG1IP / Fold change vs veh, PTTG1IP / RFU, CAPN2 / Fold change vs veh, CAPN2 / RFU, MED14 / Fold change vs veh, MED14 / RFU, SNORA58 / Fold change vs veh, SNORA58 / RFU, C1orf63 / Fold change vs veh, C1orf63 / RFU, LRRFIP1 / Fold change vs veh, LRRFIP1 / RFU, NDUFAF7 / Fold change vs veh, NDUFAF7 / RFU, SLC12A2 / Fold change vs veh, SLC12A2 / RFU, IBTK / Fold change vs veh, IBTK / RFU, ESF1 / Fold change vs veh, ESF1 / Fold change vs veh, TMEM50B / RFU, TAOK1 / Fold change vs veh, TAOK1 / RFU, ACBD3 / Fold change vs veh, ACBD3 / RFU, TMA16 / Fold change vs veh, TMA16 / RFU, RWDD3 / Fold change vs veh, RWDD3 / RFU, BCAT1 / Fold change vs veh, BCAT1 / RFU, EDEM3 / Fold change vs veh, EDEM3 / RFU, TMEM33 / Fold change vs veh, TMEM33 / RFU, WDR75 / Fold change vs veh, WDR75 / RFU, AHCTF1 / Fold change vs veh, AHCTF1 / RFU, TFRC / Fold change vs veh, TFRC / RFU, ZDHHC17 / Fold change vs veh, ZDHHC17 / RFU, NOM1 / Fold change vs veh, NOM1 / RFU, ARL8B / Fold change vs veh, ARL8B / RFU, ZBTB11 / Fold change vs veh, ZBTB11 / RFU, TAMM41 / Fold change vs veh, TAMM41 / RFU, KIAA1704 /// LOC100996395 / Fold change vs veh, KIAA1704 /// LOC100996395 / RFU, ING1 / Fold change vs veh, ING1 / RFU, TRMT61B / Fold change vs veh, TRMT61B / RFU, FUBP3 / Fold change vs veh, FUBP3 / RFU, TP53 / Fold change vs veh, TP53 / RFU, TNKS2 / Fold change vs veh, TNKS2 / RFU, ZFP14 / Fold change vs veh, ZFP14 / RFU, ACTR2 / Fold change vs veh, ACTR2 / RFU, PPP3R1 / Fold change vs veh, PPP3R1 / RFU, PIK3R1 / Fold change vs veh, PIK3R1 / RFU, HNRNPA1 / Fold change vs veh, HNRNPA1 / RFU, RNF170 / Fold change vs veh, RNF170 / RFU, ZNF28 / Fold change vs veh, ZNF28 / RFU, RNGTT / Fold change vs veh, RNGTT / RFU, OGT / Fold change vs veh, OGT / RFU, BRD1 / Fold change vs veh, BRD1 / RFU, MARS / Fold change vs veh, MARS / RFU, ZNF655 / Fold change vs veh, ZNF655 / RFU, FAHD1 / Fold change vs veh, FAHD1 / RFU, BDP1 / Fold change vs veh, BDP1 / RFU, LRRCC1 / Fold change vs veh, LRRCC1 / RFU, ARID1A / Fold change vs veh, ARID1A / RFU, ZNF146 / Fold change vs veh, ZNF146 / RFU, ZNF330 / Fold change vs veh, ZNF330 / RFU, GPN3 / Fold change vs veh, GPN3 / RFU, C9orf123 / Fold change vs veh, C9orf123 / RFU, N4BP2L2 / Fold change vs veh, N4BP2L2 / RFU, ARFIP1 / Fold change vs veh, ARFIP1 / RFU, FAM179B / Fold change vs veh, FAM179B / RFU, BCL10 / Fold change vs veh, BCL10 / RFU, UHRF1BP1L / Fold change vs veh, UHRF1BP1L / RFU, BET1 / Fold change vs veh, BET1 / RFU, CNOT2 / Fold change vs veh, CNOT2 / RFU, ZNF268 / Fold change vs veh, ZNF268 / Fold change vs veh, ZNF507 / RFU, DGCR2 / Fold change vs veh, DGCR2 / RFU, WDSUB1 / Fold change vs veh, WDSUB1 / Fold change vs veh, HSP90B1 /// MIR3652 / RFU, ADSS / Fold change vs veh, ADSS / RFU, GK / Fold change vs veh, GK / RFU, ZNF148 / Fold change vs veh, ZNF148 / RFU, TAF9 / Fold change vs veh, TAF9 / RFU, SLC1A5 / Fold change vs veh, SLC1A5 / RFU, SLMO2 / Fold change vs veh, SLMO2 / RFU, ABCC4 / Fold change vs veh, ABCC4 / RFU, LOC101060439 /// RAP1B / Fold change vs veh, LOC101060439 /// RAP1B / RFU, RFX7 / Fold change vs veh, RFX7 / RFU, GTPBP10 / Fold change vs veh, GTPBP10 / RFU, CNEP1R1 / Fold change vs veh, CNEP1R1 / RFU, BIVM-ERCC5 /// ERCC5 / Fold change vs veh, BIVM-ERCC5 /// ERCC5 / RFU, ILF3 / Fold change vs veh, ILF3 / RFU 11762660_at / Fold change /veh 11762660_at / RFU VCAN (11757783_s_at) / Fold change /veh VCAN (11757783_s_at) / RFU DDX43 (11728927_at) / Fold change /veh DDX43 (11728927_at) / RFU KRT8 (11758188_x_at) / Fold change /veh KRT8 (11758188_x_at) / RFU NKD1 (11759106_at) / Fold change /veh NKD1 (11759106_at) / RFU SRD5A1 (11742802_a_at) / Fold change /veh SRD5A1 (11742802_a_at) / RFU TPSAB1 /// TPSB2 (11721975_s_at) / Fold change /veh TPSAB1 /// TPSB2 (11721975_s_at) / RFU GSTM3 (11746129_a_at) / Fold change /veh GSTM3 (11746129_a_at) / RFU IL23R (11737362_x_at) / Fold change /veh IL23R (11737362_x_at) / RFU TMEM51 (11727254_a_at) / Fold change /veh TMEM51 (11727254_a_at) / RFU PIWIL2 (11732686_x_at) / Fold change /veh PIWIL2 (11732686_x_at) / RFU ORM1 (11744905_x_at) / Fold change /veh ORM1 (11744905_x_at) / RFU CCDC152 (11743942_at) / Fold change /veh CCDC152 (11743942_at) / RFU ECM1 (11717891_a_at) / Fold change /veh ECM1 (11717891_a_at) / RFU IL23R (11748794_a_at) / Fold change /veh IL23R (11748794_a_at) / RFU TNFAIP8L3 (11732012_x_at) / Fold change /veh TNFAIP8L3 (11732012_x_at) / RFU MBOAT4 (11741988_at) / Fold change /veh MBOAT4 (11741988_at) / RFU 11764193_at / Fold change /veh 11764193_at / RFU TMEM53 (11763286_at) / Fold change /veh TMEM53 (11763286_at) / RFU MAGEB2 (11727129_at) / Fold change /veh MAGEB2 (11727129_at) / RFU TMEM200A (11744735_a_at) / Fold change /veh TMEM200A (11744735_a_at) / RFU CCDC152 (11751479_a_at) / Fold change /veh CCDC152 (11751479_a_at) / RFU FAM211A (11726209_a_at) / Fold change /veh FAM211A (11726209_a_at) / RFU RGS16 (11746705_a_at) / Fold change /veh RGS16 (11746705_a_at) / RFU VCAN (11755009_s_at) / Fold change /veh VCAN (11755009_s_at) / RFU RHOB (11743442_s_at) / Fold change /veh RHOB (11743442_s_at) / RFU RGS16 (11720943_a_at) / Fold change /veh RGS16 (11720943_a_at) / RFU RGS16 (11720944_at) / Fold change /veh RGS16 (11720944_at) / RFU, VPS4B / Fold change vs veh, VPS4B / RFU, CREB1 / Fold change vs veh, CREB1 / RFU, DNAJC13 / Fold change vs veh, DNAJC13 / RFU, GNAQ / Fold change vs veh, GNAQ / RFU, CDK5R1 / Fold change vs veh, CDK5R1 / RFU, ZRANB3 / Fold change vs veh, ZRANB3 / RFU, CUL4A / Fold change vs veh, CUL4A / RFU, CCNY / Fold change vs veh, CCNY / RFU, UFL1 / Fold change vs veh, UFL1 / RFU, COG3 / Fold change vs veh, COG3 / RFU, DIAPH2 / Fold change vs veh, DIAPH2 / RFU, SKA2 / Fold change vs veh, SKA2 / RFU, AFF3 / Fold change vs veh, AFF3 / RFU, LMF1 / Fold change vs veh, LMF1 / RFU, IPO11 / Fold change vs veh, IPO11 / RFU, DFFB / Fold change vs veh, DFFB / RFU, FOXP1 / Fold change vs veh, FOXP1 / RFU, CARD8 / Fold change vs veh, CARD8 / RFU, STRN3 / Fold change vs veh, STRN3 / RFU, ADK / Fold change vs veh, ADK / RFU, RASSF2 / Fold change vs veh, RASSF2 / RFU, WIPF1 / Fold change vs veh, WIPF1 / RFU, LARP1B / Fold change vs veh, LARP1B / RFU, RASA1 / Fold change vs veh, RASA1 / RFU, RB1 / Fold change vs veh, RB1 / RFU, PPFIA1 / Fold change vs veh, PPFIA1 / RFU, MAT2A / Fold change vs veh, MAT2A / RFU, CCT5 / Fold change vs veh, CCT5 / RFU, WDR92 / Fold change vs veh, WDR92 / RFU, CUX1 / Fold change vs veh, CUX1 / RFU, TTC7A / Fold change vs veh, TTC7A / RFU, TMEM135 / Fold change vs veh, TMEM135 / RFU, DEPTOR / Fold change vs veh, DEPTOR / RFU, CPM / Fold change vs veh, CPM / RFU, DNAJB6 / Fold change vs veh, DNAJB6 / RFU, CACNA2D3 / Fold change vs veh, CACNA2D3 / RFU, DTX4 / Fold change vs veh, DTX4 / RFU, TFCP2 / Fold change vs veh, TFCP2 / RFU, GMCL1 /// GMCL1P1 / Fold change vs veh, GMCL1 /// GMCL1P1 / RFU, AEBP2 / Fold change vs veh, AEBP2 / RFU, SNHG1 /// SNORD22 /// SNORD25 /// SNORD26 /// SNORD27 /// SNORD28 /// SNORD29 /// SNORD31 / Fold change vs veh, SNHG1 /// SNORD22 /// SNORD25 /// SNORD26 /// SNORD27 /// SNORD28 /// SNORD29 /// SNORD31 / Fold change (Aza/veh), C12orf56 (ProbeSet 11735607_a_at) / Fold change (ACY-1035/veh), C12orf56 (ProbeSet 11735607_a_at) / Fold change (Aza/veh), FGFR1OP (ProbeSet 11751329_s_at) / Fold change (ACY-1035/veh), FGFR1OP (ProbeSet 11751329_s_at) / Fold change (Aza/veh), VPS36 (ProbeSet 11739960_a_at) / Fold change (ACY-1035/veh), VPS36 (ProbeSet 11739960_a_at) / RFU SYPL1 (11715823_x_at) / Fold change /veh SYPL1 (11715823_x_at) / RFU IGFBP7 (11715501_s_at) / Fold change /veh IGFBP7 (11715501_s_at) / RFU REEP3 (11722064_at) / Fold change /veh REEP3 (11722064_at) / RFU IGLL1 (11728026_x_at) / Fold change /veh IGLL1 (11728026_x_at): dose or concentration left out as unconfirmed. As to conditions: ProbeSet 11725885_a_at; LIST B.

On to `Nc1ccc(-c2cccs2)cc1NC(=O)c1ccc2c(c1)cc(C1CC1)n2CCN1CCOCC1` [ACY-1035], for which the “Fold change vs veh, CNEP1R1” value worked out at 1.08.
